Data on one molecule can be found in publication PMC5446409 (Scientific Reports, 2017).

The target in one test is T1, hERG (hKv11.1) (Homo sapiens, UniProt Q12809).
T1 construct: gene KCNH2; human KCNH2 stably expressed in HEK293 cells
Briefly: automated patch clamp of I Kr in hERG-HEK293 cells; independently verified in hERG-CHO ([…] at […]). In kind it is cell-based. Background: The patch-clamp technique gives a direct electrical read-out from membranes.

The target in test [1] is T2, hCav1.2 (L-type calcium channel, LTCC) (Homo sapiens, UniProt Q13936).
T2 construct: gene CACNA1C; hCav1.2/β2/α2δ1 channel stably expressed in CHO cells; with CACNB2 (β2) and CACNA2D1 (α2δ1) subunits
Briefly: automated patch clamp of I Ca,L in Cav1.2-CHO cells; confirmed by conventional patch clamp with Ba2+ as charge carrier. Format: cell-based.

Some results are limits rather than exact numbers.

T2 sequence (Q13936 whole entry): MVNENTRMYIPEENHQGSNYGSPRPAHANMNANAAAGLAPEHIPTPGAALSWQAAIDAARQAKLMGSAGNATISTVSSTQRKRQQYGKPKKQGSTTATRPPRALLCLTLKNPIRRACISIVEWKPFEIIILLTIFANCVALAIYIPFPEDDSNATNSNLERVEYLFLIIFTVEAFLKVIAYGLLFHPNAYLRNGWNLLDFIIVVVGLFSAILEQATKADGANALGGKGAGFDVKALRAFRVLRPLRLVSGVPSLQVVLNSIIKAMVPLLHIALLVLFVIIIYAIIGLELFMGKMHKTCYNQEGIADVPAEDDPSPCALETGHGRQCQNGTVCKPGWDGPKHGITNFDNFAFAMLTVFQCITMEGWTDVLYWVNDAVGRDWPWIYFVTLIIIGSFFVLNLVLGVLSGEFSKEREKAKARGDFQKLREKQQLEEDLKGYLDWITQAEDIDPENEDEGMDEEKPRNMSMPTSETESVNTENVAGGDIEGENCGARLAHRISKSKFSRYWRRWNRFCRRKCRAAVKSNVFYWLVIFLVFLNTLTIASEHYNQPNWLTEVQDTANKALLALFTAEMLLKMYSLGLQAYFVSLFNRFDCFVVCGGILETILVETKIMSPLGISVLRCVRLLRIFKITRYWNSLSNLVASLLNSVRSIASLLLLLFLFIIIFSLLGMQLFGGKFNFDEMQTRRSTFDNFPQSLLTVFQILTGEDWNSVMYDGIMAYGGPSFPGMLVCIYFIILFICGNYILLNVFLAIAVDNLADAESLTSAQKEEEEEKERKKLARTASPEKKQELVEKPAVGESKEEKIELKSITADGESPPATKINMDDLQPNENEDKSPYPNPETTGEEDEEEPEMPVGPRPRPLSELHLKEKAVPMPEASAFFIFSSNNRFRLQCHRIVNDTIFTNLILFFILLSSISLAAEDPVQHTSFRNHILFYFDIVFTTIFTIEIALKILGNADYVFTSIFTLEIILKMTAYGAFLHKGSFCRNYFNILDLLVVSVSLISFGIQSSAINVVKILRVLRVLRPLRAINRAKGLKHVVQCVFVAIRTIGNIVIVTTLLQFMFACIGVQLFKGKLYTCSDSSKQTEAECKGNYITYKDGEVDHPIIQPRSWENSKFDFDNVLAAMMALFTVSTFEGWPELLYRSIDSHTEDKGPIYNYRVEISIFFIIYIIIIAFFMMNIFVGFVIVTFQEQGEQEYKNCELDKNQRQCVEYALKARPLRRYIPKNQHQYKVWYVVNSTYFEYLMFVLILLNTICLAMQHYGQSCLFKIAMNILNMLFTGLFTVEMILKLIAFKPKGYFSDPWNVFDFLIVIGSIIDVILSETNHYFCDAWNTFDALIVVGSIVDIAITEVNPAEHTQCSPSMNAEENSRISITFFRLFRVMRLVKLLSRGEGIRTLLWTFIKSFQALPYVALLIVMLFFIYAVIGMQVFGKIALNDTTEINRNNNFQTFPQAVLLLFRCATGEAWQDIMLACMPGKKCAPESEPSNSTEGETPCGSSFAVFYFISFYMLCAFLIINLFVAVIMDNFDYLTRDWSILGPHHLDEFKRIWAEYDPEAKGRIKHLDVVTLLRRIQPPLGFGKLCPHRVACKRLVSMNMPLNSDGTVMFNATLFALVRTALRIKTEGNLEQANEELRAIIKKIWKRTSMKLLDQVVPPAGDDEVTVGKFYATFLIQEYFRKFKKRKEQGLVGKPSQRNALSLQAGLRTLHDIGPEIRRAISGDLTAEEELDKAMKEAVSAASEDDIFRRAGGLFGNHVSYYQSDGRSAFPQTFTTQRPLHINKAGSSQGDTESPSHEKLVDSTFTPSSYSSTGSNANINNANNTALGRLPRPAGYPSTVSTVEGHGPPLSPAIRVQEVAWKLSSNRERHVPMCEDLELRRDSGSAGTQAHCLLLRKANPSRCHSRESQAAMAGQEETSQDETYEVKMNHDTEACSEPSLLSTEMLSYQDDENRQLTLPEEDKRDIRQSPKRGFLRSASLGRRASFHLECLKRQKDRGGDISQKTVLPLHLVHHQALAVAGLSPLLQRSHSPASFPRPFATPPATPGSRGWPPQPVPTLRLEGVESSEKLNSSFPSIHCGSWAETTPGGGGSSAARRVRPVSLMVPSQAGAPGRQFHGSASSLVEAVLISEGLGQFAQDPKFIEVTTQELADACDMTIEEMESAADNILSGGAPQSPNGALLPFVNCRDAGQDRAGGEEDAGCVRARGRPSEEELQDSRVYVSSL
T2 sequence (Q08289 whole entry partner): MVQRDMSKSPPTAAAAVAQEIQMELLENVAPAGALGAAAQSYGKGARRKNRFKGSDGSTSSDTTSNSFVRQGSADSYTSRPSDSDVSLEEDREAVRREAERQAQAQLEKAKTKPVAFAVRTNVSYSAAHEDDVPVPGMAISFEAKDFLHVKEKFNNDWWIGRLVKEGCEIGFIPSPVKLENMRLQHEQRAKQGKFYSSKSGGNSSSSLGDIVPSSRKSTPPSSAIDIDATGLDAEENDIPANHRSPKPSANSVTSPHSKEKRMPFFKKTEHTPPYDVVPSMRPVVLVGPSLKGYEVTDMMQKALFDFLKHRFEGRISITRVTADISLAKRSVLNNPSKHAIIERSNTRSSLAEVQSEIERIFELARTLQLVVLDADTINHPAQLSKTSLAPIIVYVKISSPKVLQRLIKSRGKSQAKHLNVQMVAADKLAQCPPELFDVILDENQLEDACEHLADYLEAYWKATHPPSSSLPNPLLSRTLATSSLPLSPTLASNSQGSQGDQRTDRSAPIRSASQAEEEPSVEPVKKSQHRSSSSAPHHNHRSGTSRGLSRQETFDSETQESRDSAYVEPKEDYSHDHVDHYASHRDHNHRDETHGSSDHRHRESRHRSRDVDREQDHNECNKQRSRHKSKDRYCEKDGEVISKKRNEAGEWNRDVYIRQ
T2 sequence (P54289 25-956 partner): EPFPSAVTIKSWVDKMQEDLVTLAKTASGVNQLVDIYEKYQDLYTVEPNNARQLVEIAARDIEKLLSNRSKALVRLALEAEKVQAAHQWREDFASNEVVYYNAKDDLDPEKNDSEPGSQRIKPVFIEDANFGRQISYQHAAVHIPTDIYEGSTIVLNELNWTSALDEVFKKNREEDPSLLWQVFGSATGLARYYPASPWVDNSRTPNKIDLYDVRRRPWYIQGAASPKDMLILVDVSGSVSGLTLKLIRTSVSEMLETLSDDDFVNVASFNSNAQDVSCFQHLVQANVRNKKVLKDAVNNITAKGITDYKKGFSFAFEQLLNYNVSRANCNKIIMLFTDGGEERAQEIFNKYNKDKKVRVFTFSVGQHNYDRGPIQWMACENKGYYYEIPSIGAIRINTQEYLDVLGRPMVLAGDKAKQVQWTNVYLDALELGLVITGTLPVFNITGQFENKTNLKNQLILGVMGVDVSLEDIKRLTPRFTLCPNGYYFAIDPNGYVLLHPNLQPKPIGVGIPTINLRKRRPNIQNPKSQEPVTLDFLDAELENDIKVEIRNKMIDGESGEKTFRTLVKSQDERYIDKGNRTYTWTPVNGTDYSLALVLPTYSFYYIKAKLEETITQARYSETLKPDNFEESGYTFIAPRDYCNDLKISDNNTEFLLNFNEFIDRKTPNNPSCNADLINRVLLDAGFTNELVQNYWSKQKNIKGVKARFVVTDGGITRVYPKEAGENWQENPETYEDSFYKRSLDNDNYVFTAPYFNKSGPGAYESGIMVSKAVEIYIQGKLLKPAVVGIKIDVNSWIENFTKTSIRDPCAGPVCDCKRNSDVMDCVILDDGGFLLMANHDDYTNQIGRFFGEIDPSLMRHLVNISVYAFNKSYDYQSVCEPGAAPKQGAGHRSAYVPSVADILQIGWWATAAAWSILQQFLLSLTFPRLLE
T2 sequence (P54289 957-1103 partner): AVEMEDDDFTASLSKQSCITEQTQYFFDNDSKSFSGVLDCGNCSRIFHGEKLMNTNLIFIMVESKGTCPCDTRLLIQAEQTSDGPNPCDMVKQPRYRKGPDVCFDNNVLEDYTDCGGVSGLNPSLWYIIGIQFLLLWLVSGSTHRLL
T1 sequence (Q12809 whole entry): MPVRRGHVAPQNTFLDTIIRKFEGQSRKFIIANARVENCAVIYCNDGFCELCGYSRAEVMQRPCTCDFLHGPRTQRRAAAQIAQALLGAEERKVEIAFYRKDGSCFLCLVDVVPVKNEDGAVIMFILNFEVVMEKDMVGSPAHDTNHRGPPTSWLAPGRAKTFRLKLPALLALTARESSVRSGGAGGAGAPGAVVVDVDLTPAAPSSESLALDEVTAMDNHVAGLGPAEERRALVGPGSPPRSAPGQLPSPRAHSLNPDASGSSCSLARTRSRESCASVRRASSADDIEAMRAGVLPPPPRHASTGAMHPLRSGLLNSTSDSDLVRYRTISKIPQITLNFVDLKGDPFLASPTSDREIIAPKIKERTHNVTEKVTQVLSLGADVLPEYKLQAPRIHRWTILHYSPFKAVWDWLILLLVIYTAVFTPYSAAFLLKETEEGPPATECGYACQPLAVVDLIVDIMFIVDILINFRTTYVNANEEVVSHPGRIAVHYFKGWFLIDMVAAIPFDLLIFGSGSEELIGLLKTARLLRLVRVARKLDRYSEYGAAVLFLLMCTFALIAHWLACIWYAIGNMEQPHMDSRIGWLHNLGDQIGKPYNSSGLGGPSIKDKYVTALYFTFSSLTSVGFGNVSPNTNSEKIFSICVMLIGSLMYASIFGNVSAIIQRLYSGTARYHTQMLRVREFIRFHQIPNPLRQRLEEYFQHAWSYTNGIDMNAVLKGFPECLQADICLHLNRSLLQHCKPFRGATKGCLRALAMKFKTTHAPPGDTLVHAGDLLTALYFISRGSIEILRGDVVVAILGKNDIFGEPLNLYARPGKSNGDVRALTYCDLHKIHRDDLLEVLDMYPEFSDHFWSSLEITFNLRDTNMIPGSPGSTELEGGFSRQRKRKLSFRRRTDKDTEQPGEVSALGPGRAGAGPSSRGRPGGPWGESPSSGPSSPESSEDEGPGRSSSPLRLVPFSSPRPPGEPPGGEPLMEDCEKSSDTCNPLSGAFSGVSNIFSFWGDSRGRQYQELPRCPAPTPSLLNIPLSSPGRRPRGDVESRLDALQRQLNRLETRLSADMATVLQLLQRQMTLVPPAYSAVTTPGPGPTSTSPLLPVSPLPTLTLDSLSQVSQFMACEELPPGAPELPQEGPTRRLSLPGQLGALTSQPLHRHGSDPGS

For the molecule `C[C@]12CC[C@H](O)C[C@H]1CC[C@@H]1[C@@H]2CC[C@]2(C)[C@@H](c3ccc(=O)oc3)CC[C@]12O` [BF, bufalin], the IC50 (usually the concentration at which inhibition is half-maximal) is greater than 100 µM at hERG (hKv11.1) and 12.5 µM in test [1].
